According to PubChem BioAssay AID330 (DTP/NCI, 2004):
Values joined by “and” are separate entries in the source; they are usually repeats but may differ in a detail not shown here. Equal entries are not always repeated. Inconclusive results and toxic doses are left out.

Test system: P388 leukemia ip, CD2F1 mice, survival T/C
Experiment: NCI In Vivo Anticancer Drug Screen. Data for tumor model P388 Leukemia (intraperitoneal) in CD2F1 (CDF1) mice
Settings: endpoint: median survival time, higher = longer survival
Procedure, shortened: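 Mice carrying the transplanted tumor received test compound or vehicle. Survival was recorded in each group, and the value is the treated-group measurement divided by that of the vehicle-treated control group.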

[1] = dose: 50.0 mg/kg/injection, schedule: Q01DX009 (ip), vehicle: Klucel (hydroxypropylcellulose) (HPC)
[2] = dose: 100.0 mg/kg/injection, schedule: Q01DX009 (ip), vehicle: Klucel (hydroxypropylcellulose) (HPC)
[3] = dose: 50.0 mg/kg/injection, schedule: Q01DX005 (ip), vehicle: saline
[4] = dose: 100.0 mg/kg/injection, schedule: Q01DX005 (ip), vehicle: saline
[5] = dose: 25.0 mg/kg/injection, schedule: Q01DX009 (ip), vehicle: Klucel (hydroxypropylcellulose) (HPC)
[6] = dose: 50.0 mg/kg/injection, schedule: Q01DX005 (ip), vehicle: Klucel (hydroxypropylcellulose) (HPC)
[7] = dose: 100.0 mg/kg/injection, schedule: Q01DX005 (ip), vehicle: Klucel (hydroxypropylcellulose) (HPC)
[8] = dose: 200.0 mg/kg/injection, schedule: Q01DX005 (ip), vehicle: Klucel (hydroxypropylcellulose) (HPC)
[9] = dose: 25.0 mg/kg/injection, schedule: Q01DX005 (ip), vehicle: saline
[10] = dose: 200.0 mg/kg/injection, schedule: Q01DX005 (ip), vehicle: saline
[11] = dose: 12.5 mg/kg/injection, schedule: Q01DX009 (ip), vehicle: saline with Tween-80
[12] = dose: 25.0 mg/kg/injection, schedule: Q01DX009 (ip), vehicle: saline with Tween-80
[13] = dose: 20.0 mg/kg/injection, schedule: Q01DX009 (ip), vehicle: Klucel (hydroxypropylcellulose) (HPC)
[14] = dose: 40.0 mg/kg/injection, schedule: Q01DX009 (ip), vehicle: Klucel (hydroxypropylcellulose) (HPC)
[15] = dose: 60.0 mg/kg/injection, schedule: Q01DX005 (ip), vehicle: saline with Tween-80
[16] = dose: 120.0 mg/kg/injection, schedule: Q01DX005 (ip), vehicle: saline with Tween-80

## COc1ccc(CC(N)C(=O)OCc2ccccc2)cc1N(CCCl)CCCl (stereo not drawn)
dose: 1.56 mg/kg/injection, schedule: Q01DX009 (ip), vehicle: suspension in saline
  T/C: 97 % of control
dose: 3.12 mg/kg/injection, schedule: Q01DX009 (ip), vehicle: suspension in saline
  T/C: 95 % of control
dose: 6.25 mg/kg/injection, schedule: Q01DX009 (ip), vehicle: suspension in saline
  T/C: 100 % of control

## CS(=O)(=O)c1nc(N)c(S(N)(=O)=O)c(N)n1
[1]
  T/C: 108 % of control
[2]
  T/C: 111 % of control

## CN1CCC(CNc2ccccc2)CC1
dose: 7.5 mg/kg/injection, schedule: Q01DX005 (ip), vehicle: saline
  T/C: 98 % of control
dose: 15.0 mg/kg/injection, schedule: Q01DX005 (ip), vehicle: saline
  T/C: 98 % of control

## C[Si]c1ccccc1CN(C)C
[3]
  T/C: 106 % of control
[4]
  T/C: 102 % of control

## COc1ccc(/C(C[P+](c2ccccc2)(c2ccccc2)c2ccccc2)=N/OC(C)(C)OC)cc1
dose: 6.25 mg/kg/injection, schedule: Q01DX009 (ip), vehicle: Klucel (hydroxypropylcellulose) (HPC)
  T/C: 98 % of control
dose: 12.5 mg/kg/injection, schedule: Q01DX009 (ip), vehicle: Klucel (hydroxypropylcellulose) (HPC)
  T/C: 100 % of control
[5]
  T/C: 106 % of control
[1]
  T/C: 101 % of control

## Cc1ccc(S(=O)(=O)ON=C2CC(c3ccccc3)N(C)C(c3ccccc3)C2)cc1 (stereo not drawn)
[6]
  T/C: 116 % of control and 101 % of control
[7]
  T/C: 107 % of control and 104 % of control
[8]
  T/C: 100 % of control

## O=C(Nc1nccs1)Nc1cc(F)ccc1F
[5]
  T/C: 90 % of control
[1]
  T/C: 90 % of control
[2]
  T/C: 90 % of control
dose: 200.0 mg/kg/injection, schedule: Q01DX009 (ip), vehicle: Klucel (hydroxypropylcellulose) (HPC)
  T/C: 90 % of control

## CN(C)c1nc(=O)c(-c2ccccc2)c(-c2ccccc2)o1
dose: 100.0 mg/kg/injection, schedule: Q04DX002 (ip), vehicle: Klucel (hydroxypropylcellulose) (HPC)
  T/C: 103 % of control
dose: 200.0 mg/kg/injection, schedule: Q04DX002 (ip), vehicle: Klucel (hydroxypropylcellulose) (HPC)
  T/C: 106 % of control
dose: 400.0 mg/kg/injection, schedule: Q04DX002 (ip), vehicle: Klucel (hydroxypropylcellulose) (HPC)
  T/C: 103 % of control

## C/C=C(\C)c1cc(OC)c(C)c(=O)o1
dose: 25.0 mg/kg/injection, schedule: Q04DX003 (ip), vehicle: Klucel (hydroxypropylcellulose) (HPC)
  T/C: 118 % of control
dose: 50.0 mg/kg/injection, schedule: Q04DX003 (ip), vehicle: Klucel (hydroxypropylcellulose) (HPC)
  T/C: 116 % of control
dose: 100.0 mg/kg/injection, schedule: Q04DX003 (ip), vehicle: Klucel (hydroxypropylcellulose) (HPC)
  T/C: 114 % of control

## N#Cc1cn(N(CCO)CCO)c(=O)[nH]c1=O
[9]
  T/C: 105 % of control
[3]
  T/C: 106 % of control
[4]
  T/C: 105 % of control
[10]
  T/C: 103 % of control

## CC1(C)N=C(N)N=C(N)N1c1ccc(CNC(=O)Nc2ccc(S(=O)(=O)F)cc2)c(Cl)c1
dose: 132.0 mg/kg/injection, schedule: Q04DX003 (ip), vehicle: saline with Tween-80
  T/C: 154 % of control
dose: 200.0 mg/kg/injection, schedule: Q04DX003 (ip), vehicle: saline with Tween-80
  T/C: 154 % of control

## CCCS(=N)(=O)CCC(N)C(=O)O (stereo not drawn)
[9]
  T/C: 93 % of control
[3]
  T/C: 98 % of control
[4]
  T/C: 107 % of control
[10]
  T/C: 112 % of control

## COc1ccc2c(c1)CCc1c(N)ncnc1-2
dose: 100.0 mg/kg/injection, schedule: Q04DX002 (ip), vehicle: saline with Tween-80
  T/C: 104 % of control
dose: 200.0 mg/kg/injection, schedule: Q04DX002 (ip), vehicle: saline with Tween-80
  T/C: 106 % of control
dose: 400.0 mg/kg/injection, schedule: Q04DX002 (ip), vehicle: saline with Tween-80
  T/C: 107 % of control

## Cc1cccc(C)c1OCc1n[nH]c(=S)n1-c1ccccc1
[6]
  T/C: 89 % of control
[7]
  T/C: 90 % of control
[8]
  T/C: 90 % of control

## O=C1Nc2ccccc2C(O)(c2ccccc2)N1Cc1ccccc1 (stereo not drawn)
dose: 6.25 mg/kg/injection, schedule: Q01DX009 (ip), vehicle: saline with Tween-80
  T/C: 91 % of control
[11]
  T/C: 100 % of control
[12]
  T/C: 88 % of control
dose: 200.0 mg/kg/injection, schedule: Q01DX009 (ip), vehicle: saline
  T/C: 87 % of control

## COc1cc2c(c(O)c1OC)-c1ccc(OC)c(=O)cc1[C@@H](NC(C)=O)CC2
dose: 2.5 mg/kg/injection, schedule: Q01DX009 (ip), vehicle: Klucel (hydroxypropylcellulose) (HPC)
  T/C: 102 % of control
dose: 5.0 mg/kg/injection, schedule: Q01DX009 (ip), vehicle: Klucel (hydroxypropylcellulose) (HPC)
  T/C: 93 % of control
dose: 10.0 mg/kg/injection, schedule: Q01DX009 (ip), vehicle: Klucel (hydroxypropylcellulose) (HPC)
  T/C: 96 % of control
[13]
  T/C: 93 % of control
dose: 28.0 mg/kg/injection, schedule: Q01DX009 (ip), vehicle: Klucel (hydroxypropylcellulose) (HPC)
  T/C: 86 % of control
[14]
  T/C: 102 % of control
dose: 56.0 mg/kg/injection, schedule: Q01DX009 (ip), vehicle: Klucel (hydroxypropylcellulose) (HPC)
  T/C: 96 % of control

## Cc1c2c(c(C)c3c1C(=O)c1cc4c(cc1C3=O)OCO4)OCO2
[15]
  T/C: 92 % of control
[16]
  T/C: 99 % of control
dose: 240.0 mg/kg/injection, schedule: Q01DX005 (ip), vehicle: saline with Tween-80
  T/C: 102 % of control

## CCNCc1c(C)[nH]c2ccc(N(C)C)cc2c1=O
dose: 50.0 mg/kg/injection, schedule: Q01DX009 (ip), vehicle: saline
  T/C: 92 % of control
dose: 100.0 mg/kg/injection, schedule: Q01DX009 (ip), vehicle: saline
  T/C: 108 % of control

## OC1OCC2CC3c4cc5c(cc4CCN3CC21)OCO5 (stereo not drawn)
dose: 0.63 mg/kg/injection, schedule: Q01DX009 (ip), vehicle: distilled water + Tween-80
  T/C: 103 % of control
dose: 1.25 mg/kg/injection, schedule: Q01DX009 (ip), vehicle: distilled water + Tween-80
  T/C: 109 % of control
dose: 2.5 mg/kg/injection, schedule: Q01DX009 (ip), vehicle: distilled water + Tween-80
  T/C: 108 % of control
dose: 5.0 mg/kg/injection, schedule: Q01DX009 (ip), vehicle: distilled water + Tween-80
  T/C: 100 % of control
dose: 10.0 mg/kg/injection, schedule: Q01DX009 (ip), vehicle: distilled water + Tween-80
  T/C: 103 % of control
dose: 20.0 mg/kg/injection, schedule: Q01DX009 (ip), vehicle: distilled water + Tween-80
  T/C: 103 % of control

## O=C(Oc1ccccc1)N1CCCSC1=S
[15]
  T/C: 98 % of control
[16]
  T/C: 100 % of control

## COC(=O)/C=C/c1oc(=O)c(CO)c(OC)c1CO
[13]
  T/C: 119 % of control
[14]
  T/C: 119 % of control
dose: 80.0 mg/kg/injection, schedule: Q01DX009 (ip), vehicle: Klucel (hydroxypropylcellulose) (HPC)
  T/C: 111 % of control

## O=C1C=CC=C2C(=O)C(c3ccccc3)(c3ccccc3)[N+]([O-])=C12
dose: 50.0 mg/kg/injection, schedule: Q04DX002 (ip), vehicle: saline
  T/C: 100 % of control
dose: 100.0 mg/kg/injection, schedule: Q04DX002 (ip), vehicle: saline
  T/C: 98 % of control
dose: 200.0 mg/kg/injection, schedule: Q04DX002 (ip), vehicle: saline
  T/C: 111 % of control

## COc1ccc(C(O)C2c3cc4c(cc3CCN2C)OCO4)c(CO)c1OC (stereo not drawn)
dose: 25.0 mg/kg/injection, schedule: Q01DX001 (ip), vehicle: saline + alcohol
  T/C: 88 % of control
dose: 50.0 mg/kg/injection, schedule: Q01DX001 (ip), vehicle: saline + alcohol
  T/C: 95 % of control
dose: 100.0 mg/kg/injection, schedule: Q01DX001 (ip), vehicle: saline + alcohol
  T/C: 104 % of control

## Nc1nc2c(cnn2C2CCCO2)c(=O)[nH]1 (stereo not drawn)
dose: 100.0 mg/kg/injection, schedule: Q01DX001 (ip), vehicle: saline with Tween-80
  T/C: 100 % of control
dose: 200.0 mg/kg/injection, schedule: Q01DX001 (ip), vehicle: saline with Tween-80
  T/C: 106 % of control
dose: 400.0 mg/kg/injection, schedule: Q01DX001 (ip), vehicle: saline with Tween-80
  T/C: 96 % of control

## O=C(OC12CCCCC1C1(CCCCC1)N=N2)c1ccccc1 (stereo not drawn)
[11]
  T/C: 105 % of control
[12]
  T/C: 99 % of control
dose: 50.0 mg/kg/injection, schedule: Q01DX009 (ip), vehicle: saline with Tween-80
  T/C: 111 % of control
dose: 100.0 mg/kg/injection, schedule: Q01DX009 (ip), vehicle: saline with Tween-80
  T/C: 99 % of control
dose: 200.0 mg/kg/injection, schedule: Q01DX009 (ip), vehicle: saline with Tween-80
  T/C: 97 % of control
